Laboratory results: ChEMBL document CHEMBL1201862, “PubChem BioAssay data set” (2004)
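Exposure lasted 48 hours, with cells grown in 96-well plates and compounds tested at five concentrations. At the GI50, growth is halved.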 Activity calls are given as the source filed them. Cut-off read from the data, not from the text of the source: active = GI50 up to about 1.1 µM and inactive = higher.

Legend:
Assay in all cases: inhibition of tumour cell growth, NCI panel, 48 h
SNB-19 = test system: SNB-19
SF-268 = test system: SF-268
M14 = test system: M14
OVCAR-8 = test system: OVCAR-8
SK-MEL-5 = test system: SK-MEL-5
IGROV-1 = test system: IGROV-1
OVCAR-3 = test system: OVCAR-3
RPMI-8226 = test system: RPMI-8226
TK-10 = test system: TK-10
KM12 = test system: KM12
HT-29 = test system: HT-29
SF-539 = test system: SF-539
RXF 393 = test system: RXF 393
CCRF-CEM = test system: CCRF-CEM
SK-OV-3 = test system: SK-OV-3
OVCAR-4 = test system: OVCAR-4
A498 = test system: A498
SR = test system: SR

Measured: GI50

N/C(=C\c1ccc(/C=C(\NC(=O)c2ccccc2)c2nc3c([nH]2)C(=O)c2ccccc2C3=O)cc1)c1nc2c([nH]1)C(=O)c1ccccc1C2=O
inactive: SNB-19 12.6 µM | SF-268 8.47 µM | M14 16.2 µM | OVCAR-8 15.8 µM | SK-MEL-5 16.5 µM | IGROV-1 14.8 µM | OVCAR-3 13.6 µM | RPMI-8226 4.33 µM | TK-10 23.1 µM | KM12 13.7 µM | HT-29 14.7 µM | SF-539 16.6 µM | RXF 393 11.8 µM | CCRF-CEM 12.3 µM | SK-OV-3 24.1 µM | OVCAR-4 11.2 µM | A498 13.6 µM

O=C1C(=Cc2cccs2)C(=O)N(CCc2ccccc2)S(=O)(=O)N1CCc1ccccc1
inactive: SNB-19 > 50 µM | SF-268 36.2 µM | M14 > 50 µM | OVCAR-8 > 50 µM | SK-MEL-5 > 50 µM | IGROV-1 9.2 µM | OVCAR-3 > 50 µM | RPMI-8226 20.7 µM | TK-10 > 50 µM | KM12 > 50 µM | HT-29 > 50 µM | SF-539 > 50 µM | RXF 393 20.7 µM | CCRF-CEM 36.9 µM | SR > 50 µM | SK-OV-3 > 50 µM | OVCAR-4 > 50 µM

COC1OC(C)C2OC(C)(C)OC2C1OC(C)=O (stereo not given)
inactive: SNB-19 > 100 µM | SF-268 > 100 µM | M14 > 100 µM | OVCAR-8 > 100 µM | SK-MEL-5 > 100 µM | IGROV-1 > 100 µM | OVCAR-3 > 100 µM | RPMI-8226 > 100 µM | TK-10 > 100 µM | KM12 > 100 µM | HT-29 > 100 µM | SF-539 > 100 µM | RXF 393 39.7 µM | CCRF-CEM > 100 µM | SR > 100 µM | OVCAR-4 > 100 µM | A498 > 100 µM

Cc1cccc(/N=C/c2ccc(N(CCC#N)S(=O)(=O)c3ccccc3)cc2C)c1
inactive: SNB-19 > 100 µM | SF-268 58.9 µM | M14 > 100 µM | OVCAR-8 42.9 µM | SK-MEL-5 > 100 µM | IGROV-1 > 100 µM | OVCAR-3 > 100 µM | RPMI-8226 63.4 µM | TK-10 > 100 µM | KM12 > 100 µM | HT-29 > 100 µM | SF-539 > 100 µM | CCRF-CEM 19.1 µM | SK-OV-3 > 100 µM | OVCAR-4 > 100 µM | A498 > 100 µM

C[C@]12CC[C@H](OCCC#N)CC1=CC[C@@H]1C2CC[C@]2(C)/C(=N/OCCC#N)CCC12 (stereo not given in full)
inactive: SNB-19 36.6 µM | SF-268 > 100 µM | M14 38.3 µM | OVCAR-8 > 92.7 µM | SK-MEL-5 > 21 µM | IGROV-1 > 100 µM | OVCAR-3 > 21 µM | RPMI-8226 > 100 µM | TK-10 > 44.4 µM | KM12 > 100 µM | SF-539 55 µM | RXF 393 25.4 µM | CCRF-CEM > 100 µM | SR 4.43 µM | SK-OV-3 > 63 µM | OVCAR-4 29 µM | A498 > 100 µM

COc1ccc(/N=N/c2c(-c3ccccc3)nn(C(=O)CC(=O)Nc3cccc(Cl)c3)c2-c2ccccc2)cc1
inactive: SNB-19 > 100 µM | SF-268 > 100 µM | OVCAR-8 > 100 µM | SK-MEL-5 72.9 µM | IGROV-1 > 100 µM | OVCAR-3 29.6 µM | RPMI-8226 > 100 µM | TK-10 72.9 µM | KM12 10.9 µM | HT-29 > 100 µM | SF-539 68.9 µM | CCRF-CEM > 100 µM | SK-OV-3 > 100 µM | OVCAR-4 67.9 µM | A498 > 100 µM

Cc1ccc(S(=O)(=O)C(C#N)c2nc3ccccc3nc2-n2cccn2)cc1 (stereo not given)
inactive: SNB-19 > 100 µM | SF-268 > 100 µM | M14 > 100 µM | OVCAR-8 > 100 µM | IGROV-1 > 100 µM | OVCAR-3 > 100 µM | RPMI-8226 > 100 µM | TK-10 > 100 µM | KM12 > 100 µM | HT-29 > 100 µM | SF-539 > 100 µM | CCRF-CEM > 100 µM | SK-OV-3 > 100 µM | OVCAR-4 > 100 µM

COCCOCC(=O)N(CCn1ccc(NC(c2ccccc2)(c2ccccc2)c2ccccc2)nc1=O)CCn1cnc2nc(N)[nH]c(=O)c21
inactive: SF-268 > 100 µM | M14 > 100 µM | OVCAR-8 > 100 µM | SK-MEL-5 > 100 µM | IGROV-1 > 100 µM | OVCAR-3 > 100 µM | RPMI-8226 > 100 µM | TK-10 > 100 µM | KM12 > 100 µM | HT-29 > 100 µM | SF-539 > 100 µM | RXF 393 > 100 µM | CCRF-CEM > 100 µM | SR > 100 µM | OVCAR-4 > 100 µM | A498 > 100 µM

CCCCCCCCCCOC(=O)NCCC
inactive: SNB-19 34.4 µM | SF-268 29.1 µM | M14 29.4 µM | OVCAR-8 30.5 µM | SK-MEL-5 23.9 µM | IGROV-1 64.1 µM | OVCAR-3 33.3 µM | RPMI-8226 17.9 µM | TK-10 34.5 µM | KM12 36.1 µM | HT-29 21.4 µM | SF-539 59.7 µM | RXF 393 15.9 µM | CCRF-CEM 18.5 µM | SK-OV-3 54.8 µM | OVCAR-4 21.6 µM | A498 31.7 µM

O=C(CC1(O)C(=O)Nc2c(Cl)cc(Cl)cc21)c1ccc(F)cc1 (stereo not given)
inactive: SNB-19 59.3 µM | SF-268 39.6 µM | M14 32.7 µM | OVCAR-8 21.2 µM | IGROV-1 28.3 µM | OVCAR-3 37.6 µM | RPMI-8226 24.9 µM | TK-10 > 100 µM | KM12 37.2 µM | HT-29 27.3 µM | SF-539 28.4 µM | RXF 393 27 µM | SR 29.2 µM | SK-OV-3 93.8 µM | OVCAR-4 27.8 µM

Cc1cc(C)nc(NS(=O)(=O)c2ccc(NC(=O)c3cccc4cc5ccccc5nc34)cc2)n1
inactive: SNB-19 25.7 µM | SF-268 16.2 µM | M14 24.2 µM | OVCAR-8 33 µM | SK-MEL-5 25.5 µM | IGROV-1 35.5 µM | OVCAR-3 24.8 µM | RPMI-8226 21.4 µM | TK-10 50.2 µM | KM12 24.5 µM | HT-29 35.8 µM | SF-539 15.3 µM | RXF 393 23.1 µM | CCRF-CEM 21.4 µM | SK-OV-3 > 100 µM | OVCAR-4 32.8 µM | A498 21.3 µM

COC(=O)CCSC(=O)Nc1ccccc1Cl
inactive: SNB-19 > 100 µM | SF-268 > 100 µM | M14 > 100 µM | OVCAR-8 > 100 µM | OVCAR-3 > 100 µM | RPMI-8226 > 100 µM | TK-10 > 100 µM | KM12 > 100 µM | HT-29 > 100 µM | SF-539 > 100 µM | CCRF-CEM 58.1 µM | SR > 100 µM | OVCAR-4 > 100 µM | A498 > 100 µM

Cc1ccc(/C=N/NS(=O)(=O)c2ccccc2)cc1
inactive: SF-268 > 100 µM | M14 > 100 µM | OVCAR-8 > 100 µM | SK-MEL-5 > 100 µM | IGROV-1 > 100 µM | OVCAR-3 > 100 µM | RPMI-8226 > 100 µM | TK-10 > 100 µM | KM12 > 100 µM | HT-29 > 100 µM | SF-539 > 100 µM | RXF 393 > 100 µM | CCRF-CEM > 100 µM | SR > 100 µM | SK-OV-3 > 100 µM | OVCAR-4 > 100 µM | A498 > 100 µM

CC1(C)C(O)OC(O)C1(C)C (stereo not given)
inactive: SNB-19 66.8 µM | M14 65.2 µM | OVCAR-8 41.8 µM | SK-MEL-5 32.8 µM | IGROV-1 > 100 µM | OVCAR-3 30.9 µM | RPMI-8226 70 µM | TK-10 > 100 µM | KM12 > 100 µM | HT-29 62.4 µM | RXF 393 32.6 µM | CCRF-CEM 46 µM | SK-OV-3 > 100 µM | OVCAR-4 > 100 µM

COC1(C)C(=O)N2C1N(C(=O)OCc1ccccc1)CC2(C)C (stereo not given)
inactive: SNB-19 > 100 µM | SF-268 > 100 µM | M14 > 100 µM | OVCAR-8 > 100 µM | SK-MEL-5 > 100 µM | IGROV-1 > 100 µM | OVCAR-3 > 100 µM | RPMI-8226 > 100 µM | TK-10 > 100 µM | HT-29 > 100 µM | SF-539 > 100 µM | RXF 393 > 100 µM | CCRF-CEM > 100 µM | SR > 100 µM | OVCAR-4 > 100 µM | A498 > 100 µM

O=C(N/C(=C\c1cccc([N+](=O)[O-])c1)c1nc2c3c(ccc2[nH]1)C(=O)c1ccccc1C3=O)c1ccccc1
inactive: SNB-19 41.4 µM | SF-268 17.8 µM | M14 45.5 µM | OVCAR-8 36.5 µM | SK-MEL-5 31.2 µM | OVCAR-3 49.1 µM | RPMI-8226 14.1 µM | TK-10 20.2 µM | KM12 14.5 µM | HT-29 35.6 µM | SF-539 21.4 µM | SR 5.86 µM | SK-OV-3 6.78 µM | A498 83 µM

COc1ccc(C(c2ccc(C(C)C)cc(OC)c2=O)c2ccc(C(C)C)cc(OC)c2=O)cc1
inactive: SNB-19 15.9 µM | SF-268 13.6 µM | M14 14.9 µM | OVCAR-8 16.6 µM | SK-MEL-5 14.3 µM | OVCAR-3 13.2 µM | RPMI-8226 5.06 µM | TK-10 19.6 µM | KM12 13.5 µM | HT-29 10.8 µM | SF-539 17 µM | RXF 393 4.15 µM | CCRF-CEM 10.2 µM | SR 10.4 µM | SK-OV-3 18.4 µM | OVCAR-4 12.2 µM | A498 17.7 µM
